Results on 77 compounds are retold here after PubChem BioAssay AID602210 (Sanford-Burnham Center for Chemical Genomics, 2012).

The IC50 is the concentration at which inhibition is half-maximal.

Active and inactive are the calls of the source. No rule for the calls is given here.

The nature of this assay: H9c2 cardiomyoblast viability modulators under 2-DG – cell-based, ATPlite luminescence, rat, set 2, myocardial damage modulator project, dose response (AID 602210). Particulars: H9c2 rat cardiomyoblasts, 2-deoxyglucose-induced death, 2 h. A general note: Cellular ATP, detected with luciferase, serves as a proxy for viable cell number.
Regarding `O=C(CCCN1C(=O)c2cccc3cccc(c23)C1=O)N1CCN(c2ccccc2O)CC1`, the IC50 was 19.5 µM (inactive).
For `COc1ccc(-c2cc3nc(-c4ccccc4)cc(N4CCN(C(C)=O)CC4)n3n2)cc1` the value was 16.1 µM (inactive); for `COc1ccc(-c2cc(-c3ccc(O)cc3)nc(N)c2C#N)cc1OC`, > 79 µM (inactive).
Take `CCOc1ccc(S(=O)(=O)N(C)CCO)cc1-c1nc2c(C(C)(C)C)nn(C)c2c(=O)[nH]1`: the IC50 was 33.2 µM (inactive).
With `Cc1ccc2nsnc2c1S(=O)(=O)N(Cc1ccco1)Cc1cc2cccc(C)c2[nH]c1=O`, the IC50 is > 79 µM (inactive).
For `N#Cc1cnn2cc(-c3ncc(C(F)(F)F)cc3Cl)cnc12` the value was 47.7 µM (inactive).
For `COc1ccc(Nc2nnc(SCc3cc(=O)n4ccsc4n3)s2)cc1` the value was 21.7 µM (inactive); for `O=C(c1ccc(-c2nc3ccccc3s2)o1)N1CCN(c2ccccc2O)CC1`, 13.2 µM (inactive); for `CC(C)(C)OC(=O)N1CCC[C@H]1c1nnc(SCC(=O)Nc2ccc(Br)cc2)o1`, 19.8 µM (inactive).
For `CCOC(=O)C1CCCN(C(=O)CCC(=O)Nc2ccc3nc(N4CCOCC4)cc(C)c3c2)C1` (configuration not stated) the value was 38.8 µM (inactive); for `CC(=O)Nc1cc(-c2cccc(C(=O)N(C)C)c2)cn2c(-c3ccc(C(C)=O)cc3)cnc12`, 27.1 µM (inactive).
Regarding `COc1ccc(-c2cc(C(F)(F)F)n3nc(C(=O)N4CCN(C(=O)c5ccco5)CC4)cc3n2)cc1`, the IC50 was 3.79 µM.
For `O=C(NCC1CCCO1)C(c1ccc(F)cc1)N(C(=O)Cn1nnc(-c2ccc(F)cc2)n1)c1cccc(O)c1` (configuration not stated) the value was 18.3 µM (inactive); for `COc1cc(NC(=O)c2cc([N+](=O)[O-])ccc2NC(=O)CN2CCN(c3ccccn3)CC2)cc(OC)c1`, > 79 µM (inactive); for `COc1ccc(-n2c(/C=C/c3ccc(O)c(OC)c3)nc3ccccc3c2=O)cc1`, 8.14 µM.
On to `COc1ccc(-c2cc(C(=O)N(C)Cc3ccccc3F)c3ccccc3n2)cc1OC`, for which the IC50 is 13.5 µM (inactive).
For `CCC(c1nnnn1Cc1ccccc1)N1CCC(n2c(=O)[nH]c3ccccc32)CC1` (configuration not stated) the value was 1.98 µM; for `O=C(CCCn1c(SCC(=O)c2ccc(O)c(O)c2)nc2ccccc2c1=O)NCC1CCCO1` (configuration not stated), 36.8 µM (inactive); for `COc1ccc(-c2cc3nc(-c4ccccc4)cc(N4CCN(C(=O)c5ccoc5)CC4)n3n2)cc1`, 7.21 µM.
For `COc1ccc(-c2oc3c(OC)c(OC)c(OC)c(O)c3c(=O)c2OC)cc1OC` the value was > 79 µM (inactive).
For `CCc1nc2ccc(C(=O)Nc3cc(-c4ccccc4)ccc3OC)cn2c1N(C)Cc1nccs1` the value was 14.1 µM (inactive); for `O=C(CSc1ccc2nnc(-c3ccc(F)cc3)n2n1)N1CCCc2ccccc21`, 16.8 µM (inactive).
With `CCN(CC)C(=O)c1ccc2c3c(cccc13)C(=O)N(CCc1ccc(OC)c(OC)c1)C2=O`, the IC50 is 25 µM (inactive).
On to `COc1ccc2[nH]c(=O)c(CN(Cc3cccnc3)S(=O)(=O)c3ccccc3F)cc2c1`, for which the half-inhibitory concentration (IC50) is 2.74 µM.
For `O=C(c1cc(-c2cccnc2)nc2ccc(Br)cc12)N1CCN(c2ncccn2)CC1` the value was 16.2 µM (inactive); for `Cn1c(-n2c(CCCN3C(=O)c4ccccc4C3=O)nc3ccccc3c2=O)nc2ccccc21`, > 79 µM (inactive); for `COc1cc(NC(=O)c2ccc(-c3cn[nH]c3)c3ccoc23)cc(OC)c1OC`, 15.4 µM (inactive).
`O=C(N/N=C/c1ccc(-c2cccc([N+](=O)[O-])c2)o1)c1ccc([N+](=O)[O-])cc1`: the IC50 is 11.8 µM (inactive).
With `CC(C)(C)C(=O)Nc1cccc(-c2nnc(-c3cccc(NC(=O)C(C)(C)C)c3)o2)c1`, the IC50 is 10.7 µM (inactive).
In the case of `O=C1N[C@H](Cc2ccccc2)COC(=O)[C@@H](Cc2ccc(F)cc2)C/C=C\C[C@H]1CC(=O)N(CCO)Cc1ccccc1`, the IC50 was 19.3 µM (inactive).
For `O=C(Nc1cccc(Cl)c1)c1nc[nH]c1C(=O)NCCCNC(=O)c1[nH]cnc1C(=O)Nc1cccc(Cl)c1` the value was > 79 µM (inactive); for `NC(=O)c1nsc(C(=O)N(c2ccccc2F)C(C(=O)NCc2ccc(F)cc2)c2ccc(O)cc2)c1N` (configuration not stated), 3.13 µM.
`COc1ccc(-c2cc(NC=O)c3ncc(-c4ccccc4)n3c2)cc1OC`: the IC50 is > 79 µM (inactive).
On to `Cc1cc(C)c(S(=O)(=O)N2CCN(C(=O)c3cc(=O)[nH]c4ccccc34)CC2)c(C)c1`, for which the IC50 is 20 µM (inactive).
For `COc1ccc(C(=O)Nc2nc(-c3ccccn3)cs2)cc1S(=O)(=O)N1CCOCC1` the value was 26.8 µM (inactive); for `CC(=O)Nc1cccc(NC(=O)c2cc(-c3cccnc3)nc3ccc(Cl)cc23)c1`, > 79 µM (inactive); for `CC(=O)c1ccc(N2CCN(C(=O)c3cc(-c4cccnc4)nc4ccc(Br)cc34)CC2)cc1`, 15.7 µM (inactive).
With `Cn1c(=O)n(CCc2ccccc2)c(=O)c2c1nc1n2CCN1Cc1ccco1`, the IC50 was 19.3 µM (inactive).
For `COc1ccc(N(CC(=O)N/N=C/c2cccs2)S(=O)(=O)c2ccc(OC)c(OC)c2)cc1` the value was 28 µM (inactive); for `CCC(CC)C(=O)Nc1cc(C)c2c(=O)oc3ccccc3c2n1`, 36.4 µM (inactive).
For `Cc1ccc(-n2cc(-c3ccccc3)c3c(N4CCOCC4)ncnc32)cc1` the value was 8.37 µM; for `COc1cc2nc(Nc3ccc(F)cc3)nc(N)c2cc1OC`, > 79 µM (inactive); for `NS(=O)(=O)c1ccc(CCNC(=O)c2ccc(C#CC3(O)CCCCC3)cc2)cc1`, 4.94 µM.
For `COc1ccc(-c2csc(NC(=O)c3cccc(N4C(=O)CCC4=O)c3)n2)cc1OC` the value was 13.1 µM (inactive); for `Cc1nc(N2CCN(c3ccccn3)CC2)c2c(C)c(C(=O)Nc3ccc(F)cc3)sc2n1`, 14.9 µM (inactive); for `O=C(c1cc(=O)[nH]c2ccccc12)N1CCN(S(=O)(=O)c2ccc3ccccc3c2)CC1`, 17.4 µM (inactive).
For the compound `COc1ccc(N(Cc2cc3cc(OC)ccc3[nH]c2=O)C(=O)c2cccnc2)cc1`, the IC50 is > 79 µM (inactive).
For `CCCN1C(=O)c2cc(C(=O)Nc3cccc(C(C)=O)c3)ccc2C1Nc1cccc(C(C)=O)c1` (configuration not stated) the value was 13.7 µM (inactive); for `CCn1c(=O)cc(OCC(=O)Nc2ccccc2C#N)c2ccccc21`, 43.9 µM (inactive).
For `CCOC(=O)C1=C(C)NC(C)=C(C(=O)OCC)C1C(=O)OCC(=O)NC1CCCCC1` the value was 7.05 µM.
For `COc1cccc(/C=N/NC(=O)c2nc(-c3ccccc3)cc(-c3ccccc3)n2)c1` the value was > 79 µM (inactive); for `CN1CCc2nc3ccccc3c(C(=O)OCC(=O)N(CCC#N)c3ccccc3)c2C1`, > 79 µM (inactive).
Regarding `CC(=O)Nc1cccc(-c2cc(NC(C)=O)c3ncc(-c4ccccc4)n3c2)c1`, the IC50 was 12.2 µM (inactive).
For `Cc1ccc(Cn2c(CCNc3nc(-c4ccc(Cl)c([N+](=O)[O-])c4)cs3)nc3cc(C(=O)NCCCO)ccc32)cc1` the value was > 79 µM (inactive); for `Cc1nn(C)cc1C(C(=O)NC1CCCCC1)N(C(=O)Cc1cccs1)c1ccc(Cl)cc1` (configuration not stated), 29.8 µM (inactive).
For `COc1cc(/C=C/c2nnc3c4ccccc4ncn23)cc(OC)c1OC` the value was 7.24 µM.
For `CC(C)(C)OC(=O)CNC(=O)c1[nH]cnc1C(=O)Nc1ccc(CNC(=O)OC(C)(C)C)cc1` the value was 5.09 µM; for `COc1cccc(-c2nn(-c3ccccc3)cc2C(=O)Nc2nccs2)c1`, 16.3 µM (inactive).
Turning to `COc1ccc2o/c(=N/NC(=O)c3cccs3)c(C(N)=O)cc2c1`, the IC50 is 21.5 µM (inactive).
`COc1cc(/C=N/NC(=O)c2ccccc2)ccc1OS(=O)(=O)c1ccccc1`: the IC50 is 13.5 µM (inactive).
As to `COc1cc(/C=C(\C#N)C(=O)Nc2ccccc2F)ccc1OCCN1CCOCC1`, the IC50 is 41.2 µM (inactive).
For `CC(=O)Nc1cccc(NC(=O)c2cc(-c3cccnc3)nc3ccc(Br)cc23)c1` the value was > 79 µM (inactive); for `CN(C)C(=O)/C=C\c1cn(-c2ccccc2)nc1-c1ccc2c(c1)OCCO2`, 29.4 µM (inactive).
For `CCOc1cc(/C=C/c2ccc3cccc([N+](=O)[O-])c3n2)ccc1OCC(=O)N(C)C` the value was 18.3 µM (inactive).
For `Cc1ccccc1NP(=O)(Oc1ccccc1F)Oc1ccccc1F` the value was > 79 µM (inactive).
Consider `COc1ccc(C(=O)Nc2cccc(/C(C)=N/NC(=O)c3ccc([N+](=O)[O-])c(C)c3)c2)cc1OC`, for which the IC50 was 18.7 µM (inactive).
For `COc1ccccc1NC(=O)c1cc(-c2ccc(OC)c(OC)c2)nc2ccccc12` the value was 7.39 µM.
For `O=C(NC1CCCCC1)C(c1ccc2ncccc2c1)N(Cc1cccs1)C(=O)c1cccs1` (configuration not stated) the value was 27.4 µM (inactive); for `CCN(C[C@H]1N[C@@](CC)(C(=O)OC)[C@H]2C(=O)N(Cc3ccccc3)C(=O)[C@@H]12)C(=O)c1ccc(C(C)(C)C)cc1`, 3.95 µM; for `COc1cc(-c2cc(NC=O)c3ncc(-c4ccc(C(C)=O)cc4)n3c2)cc(OC)c1OC`, 6.7 µM.
For `CC(C)(C)OC(=O)C[C@H]1C/C=C\C[C@H](CC(=O)N[C@H](CO)Cc2ccccc2)C(=O)N[C@H](Cc2ccccc2)COC1=O` the value was 59.9 µM (inactive); for `O=C(Nc1ccccc1)c1nc[nH]c1C(=O)NCCNC(=O)c1[nH]cnc1C(=O)Nc1ccccc1`, 1.17 µM; for `CC(=O)c1ccc(N2CCN(C(=O)C3CCCN(c4ncnc5c4nc4n5CCCCC4)C3)CC2)cc1` (configuration not stated), 25.6 µM (inactive).
As for `COc1cc(C(=O)N/N=C/c2sc(N3CCOCC3)nc2-c2ccccc2)cc(OC)c1OC`, the IC50 is 30.9 µM (inactive).
For `CCOC(=O)c1cc2c(=O)n3ccccc3nc2n(Cc2ccco2)c1=NC(=O)c1cccnc1` the value was 23 µM (inactive); for `CCOC(=O)C1CCN(c2cc3c(cc2NC(=O)c2ccc(OC)c(OC)c2)n(C)c(=O)n3C)CC1`, 4.59 µM; for `COc1cccc(C(=O)Nc2c(C(N)=O)oc3ccccc23)c1`, 15.1 µM (inactive).
